Assay results as given in PubChem BioAssay (NCI).
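Results reflect a 48-hour exposure of cells in 96-well plates to compound at five concentrations. Abbreviation: GI50, concentration required for 50% inhibition of growth. TGI: concentration producing complete growth inhibition.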

Columns and labels:
Assay in all cases: NCI tumour cell line growth inhibition, 48 h
[1] = system: HT29 colon
[2] = system: SK-OV-3 ovarian
[3] = system: NCI-H522 lung
[4] = system: NCI-H460 lung
[5] = system: SN12C renal
[6] = system: PC-3 prostate
[7] = system: LOX IMVI melanoma
[8] = system: SK-MEL-28 melanoma
[9] = system: OVCAR-5 ovarian
[10] = system: HCT-116 colon
[11] = system: OVCAR-4 ovarian
[12] = system: MOLT-4 leukemia
[13] = system: SF-295 CNS
[14] = system: 786-0 renal
[15] = system: CCRF-CEM leukemia
[16] = system: BT-549 breast
[17] = system: K-562 leukemia
[18] = system: HOP-92 NSCLC
[19] = system: SF-268 CNS
[20] = system: SW-620 colon
[21] = system: NCI-H23 lung
[22] = system: HOP-62 NSCLC
[23] = system: OVCAR-8 ovarian
[24] = system: HL-60(TB) leukemia
[25] = system: COLO 205 colon
[26] = system: EKVX NSCLC
[27] = system: OVCAR-3 ovarian
[28] = system: A549 NSCLC
[29] = system: SNB-19 CNS
[30] = system: CAKI-1 renal
[31] = system: RPMI-8226 leukemia
[32] = system: UO-31 renal
[33] = system: HCT-15 colon
[34] = system: T-47D breast
[35] = system: NCI/ADR-RES ovarian
[36] = system: IGROV1 ovarian
[37] = system: ACHN renal
[38] = system: M14 melanoma
[39] = system: SNB-75 CNS
[40] = system: MDA-MB-435
[41] = system: DU-145 prostate
[42] = system: MALME-3M melanoma
[43] = system: U251 CNS
[44] = system: A498 renal
[45] = system: MCF7 breast
[46] = system: KM12 colon
[47] = system: RXF 393 renal
[48] = system: MDA-MB-231 breast
[49] = system: HS 578T breast
[50] = system: TK-10 renal
[51] = system: HCC-2998 colon
[52] = system: UACC-257 melanoma
[53] = system: NCI-H226 lung
[54] = system: UACC-62 melanoma
[55] = system: SF-539 CNS
[56] = system: SK-MEL-2 melanoma

For `COc1ccc(-c2nc(S(=O)(=O)c3ccccc3)c(S(=O)CC(=O)N3CCC(C)CC3)o2)cc1` (configuration not stated), the GI50 [1] was 2580 nM, the TGI [1] was 10.1 µM and the GI50 [2] was 12.9 µM. The TGI [2] was 26.5 µM, the GI50 [3] was 1440 nM and the TGI [3] was 3.39 µM. The GI50 [4] was 5.95 µM, the TGI [4] was 20.6 µM and the GI50 [5] was 1900 nM. It also gave a TGI [5] of 3.6 µM, a GI50 [6] of 3.55 µM and a TGI [6] of 15.7 µM. The GI50 [7] was 1720 nM, the TGI [7] was 3.25 µM and the GI50 [8] was 2150 nM. The TGI [8] was 4.36 µM, the GI50 [9] was 2990 nM and the TGI [9] was 8.58 µM. It also gave a GI50 [10] of 1720 nM, a TGI [10] of 3.2 µM and a GI50 [11] of 3.31 µM. The TGI [11] was 13 µM, the GI50 [12] was 2090 nM and the TGI [12] was 5.71 µM. For the same compound, the GI50 [13] was 6.44 µM, the TGI [13] was 19.4 µM and the GI50 [14] was 1920 nM. The TGI [14] was 4.05 µM, the GI50 [15] was 2820 nM and the TGI [15] was 8.63 µM. The GI50 [16] was 1730 nM, the TGI [16] was 3.77 µM and the GI50 [17] was 198 nM. For the same compound, the TGI [17] was 3.03 µM, the GI50 [18] was 1620 nM and the TGI [18] was 3.63 µM. It also gave a GI50 [19] of 3.78 µM, a TGI [19] of 14.9 µM and a GI50 [20] of 1730 nM. The TGI [20] was 4.36 µM, the GI50 [21] was 3.12 µM and the TGI [21] was 12.1 µM. The GI50 [22] was 8.12 µM, the TGI [22] was 21 µM and the GI50 [23] was 2440 nM. For the same compound, the TGI [23] was 6.59 µM, the GI50 [24] was 1610 nM and the TGI [24] was 8.35 µM. It also gave a GI50 [25] of 2040 nM, a TGI [25] of 3.86 µM and a GI50 [26] of 3.69 µM. It also gave a TGI [26] of 13.7 µM, a GI50 [27] of 1330 nM and a TGI [27] of 2740 nM. It also gave a GI50 [28] of 7.59 µM, a TGI [28] of 21.1 µM and a GI50 [29] of 6.43 µM. The TGI [29] was 19.1 µM, the GI50 [30] was 2280 nM and the TGI [30] was 6.7 µM. For the same compound, the GI50 [31] was 1250 nM, the TGI [31] was 4.02 µM and the GI50 [32] was 1260 nM. The TGI [32] was 2570 nM, the GI50 [33] was 1270 nM and the TGI [33] was 2860 nM. It also gave a GI50 [34] of 1710 nM, a TGI [34] of 4.09 µM and a GI50 [35] of 3.1 µM. The TGI [35] was 12 µM, the GI50 [36] was 2170 nM and the TGI [36] was 6.27 µM. It also gave a GI50 [37] of 1680 nM, a TGI [37] of 3.13 µM and a GI50 [38] of 1890 nM. For the same compound, the TGI [38] was 4.21 µM, the GI50 [39] was 4.16 µM and the TGI [39] was 15.2 µM. The GI50 [40] was 2550 nM, the TGI [40] was 6.56 µM and the GI50 [41] was 1370 nM. The TGI [41] was 2720 nM, the GI50 [42] was 1940 nM and the TGI [42] was 3.67 µM. It also gave a GI50 [43] of 3.06 µM, a TGI [43] of 10.6 µM and a GI50 [44] of 2460 nM. For the same compound, the TGI [44] was 9.79 µM, the GI50 [45] was 1450 nM and the TGI [45] was 3.44 µM. The GI50 [46] was 4.72 µM, the TGI [46] was 16.7 µM and the GI50 [47] was 1680 nM. For the same compound, the TGI [47] was 3.25 µM, the GI50 [48] was 1910 nM and the TGI [48] was 4.08 µM. For the same compound, the GI50 [49] was 5.86 µM, the TGI [49] was 27 µM and the GI50 [50] was 1910 nM. It also gave a TGI [50] of 3.85 µM, a GI50 [51] of 14 µM and a TGI [51] of 28.8 µM. For the same compound, the GI50 [52] was 2100 nM, the TGI [52] was 5.05 µM and the GI50 [53] was 2370 nM. It also gave a TGI [53] of 6.25 µM, a GI50 [54] of 1670 nM and a TGI [54] of 3.6 µM. The GI50 [55] was 1800 nM, the TGI [55] was 3.52 µM and the GI50 [56] was 3.19 µM. The TGI [56] was 9.83 µM.
